From publication PMC9050811 (RSC Advances, 2020)
In brackets after ≈: the same amount, converted by molar mass. Like-named read-outs stand apart in the source and are kept apart here.

Legend:
[1] = system: M. tuberculosis H37Ra-lux; experiment: microbe, parasite or virus in culture; format: cell-based, Mycobacterium tuberculosis; conditions: for IC50: read-out: M. tuberculosis H37Ra-lux IC50; for IC90: read-out: M. tuberculosis H37Ra-lux IC90
Staphylococcus aureus = experiment: Antibacterial screening against S. aureus; format: cell-based; conditions: read-out: S. aureus IC50
Escherichia coli = experiment: Antibacterial screening against E. coli; format: cell-based; conditions: read-out: E. coli IC50
MTB = conditions: cited from earlier work
MTB H37Rv = conditions: cited from earlier work
[2] = Mycobacterium tuberculosis, H37RA, 168 h

Structure (SMILES): O=C(Nc1ccc(N2CCN(C(=O)c3cnccn3)CC2)nc1)c1ccccc1 [6a, N-(6-(4-(Pyrazine-2-carbonyl)piperazin-1-yl)pyridin-3-yl)benzamide]
- IC50 [1, 2]: 1.46 µM
- IC50 (Staphylococcus aureus; Staphylococcus aureus): > 64 µM
- IC50 (Escherichia coli): > 64 µM

Structure (SMILES): COc1ccc(C(=O)Nc2ccc(N3CCN(C(=O)c4cnccn4)CC3)nc2)cc1 [6b, 4-Methoxy-N-(6-(4-(pyrazine-2-carbonyl)piperazin-1-yl)pyridin-3-yl)benzamide]
- IC50 [1, 2]: > 64 µM
- IC50 (Staphylococcus aureus; Staphylococcus aureus): > 64 µM
- IC50 (Escherichia coli): > 64 µM

Structure (SMILES): CC(C)(C)c1ccc(C(=O)Nc2ccc(N3CCN(C(=O)c4cnccn4)CC3)nc2)cc1 [6c, 4-(tert-Butyl)-N-(6-(4-(pyrazine-2-carbonyl)piperazin-1-yl)pyridin-3-yl)benzamide]
- IC50 [1, 2]: > 64 µM
- IC50 (Staphylococcus aureus; Staphylococcus aureus): > 64 µM
- IC50 (Escherichia coli): > 64 µM

Structure (SMILES): O=C(Nc1ccc(N2CCN(C(=O)c3cnccn3)CC2)nc1)c1ccc(Cl)cc1 [6d, 4-Chloro-N-(6-(4-(pyrazine-2-carbonyl)piperazin-1-yl)pyridin-3-yl)benzamide]
- IC50 [1, 2]: > 64 µM
- IC50 (Staphylococcus aureus; Staphylococcus aureus): > 64 µM
- IC50 (Escherichia coli): > 64 µM

Structure (SMILES): O=C(Nc1ccc(N2CCN(C(=O)c3cnccn3)CC2)nc1)c1ccc(Br)cc1 [6e, 4-Bromo-N-(6-(4-(pyrazine-2-carbonyl)piperazin-1-yl)pyridin-3-yl)benzamide]
- IC50 [1, 2]: 2.18 µM
- IC50 (Staphylococcus aureus; Staphylococcus aureus): > 64 µM
- IC50 (Escherichia coli): > 64 µM

Structure (SMILES): O=C(Nc1ccc(N2CCN(C(=O)c3cnccn3)CC2)nc1)c1cccc([N+](=O)[O-])c1 [6f, 3-Nitro-N-(6-(4-(pyrazine-2-carbonyl)piperazin-1-yl)pyridin-3-yl)benzamide]
- Anti-TB activity against M. tuberculosis H37Ra in words [1]: inactive
- IC50 [1, 2]: > 64 µM
- IC50 (Staphylococcus aureus; Staphylococcus aureus): > 64 µM
- IC50 (Escherichia coli): > 64 µM

Structure (SMILES): O=C(Nc1ccc(N2CCN(C(=O)c3cnccn3)CC2)nc1)c1cccc(Br)c1 [6g, 3-Bromo-N-(6-(4-(pyrazine-2-carbonyl)piperazin-1-yl)pyridin-3-yl)benzamide]
- Anti-TB activity against M. tuberculosis H37Ra in words [1]: inactive
- IC50 [1, 2]: > 64 µM
- IC50 (Staphylococcus aureus; Staphylococcus aureus): > 64 µM
- IC50 (Escherichia coli): > 64 µM

Structure (SMILES): Cc1ccccc1C(=O)Nc1ccc(N2CCN(C(=O)c3cnccn3)CC2)nc1 [6h, 2-Methyl-N-(6-(4-(pyrazine-2-carbonyl)piperazin-1-yl)pyridin-3-yl)benzamide]
- IC50 [1, 2]: 1.82 µM
- IC90 [1]: 3.85 µM
- IC50 (Staphylococcus aureus; Staphylococcus aureus): > 64 µM
- IC50 (Escherichia coli): > 64 µM

Structure (SMILES): O=C(Nc1ccc(N2CCN(C(=O)c3cnccn3)CC2)nc1)c1ccccc1I [6i, 2-Iodo-N-(6-(4-(pyrazine-2-carbonyl)piperazin-1-yl)pyridin-3-yl)benzamide]
- IC50 [1, 2]: > 64 µM
- IC50 (Staphylococcus aureus; Staphylococcus aureus): > 64 µM
- IC50 (Escherichia coli): > 64 µM

Structure (SMILES): O=C(Nc1ccc(N2CCN(C(=O)c3cnccn3)CC2)nc1)c1c(Cl)cccc1Br [6j, 2-Bromo-6-chloro-N-(6-(4-(pyrazine-2-carbonyl)piperazin-1-yl)pyridin-3-yl)benzamide]
- IC50 [1, 2]: 1.82 µM
- IC50 [1]: 2.14 µM
- IC90 [1]: 3.94 µM
- IC50 (Staphylococcus aureus; Staphylococcus aureus): > 64 µM
- IC50 (Escherichia coli): > 64 µM

Structure (SMILES): O=C(Nc1ccc(N2CCN(C(=O)c3cnccn3)CC2)nc1)c1ccc(Br)cc1Cl [6k, 4-Bromo-2-chloro-N-(6-(4-(pyrazine-2-carbonyl)piperazin-1-yl)pyridin-3-yl)benzamide]
- IC50 [1, 2]: 1.35 µM
- IC50 (Staphylococcus aureus; Staphylococcus aureus): > 64 µM
- IC50 (Escherichia coli): > 64 µM

Structure (SMILES): O=C(Nc1ccc(N2CCN(C(=O)c3cnccn3)CC2)nc1)c1ccc(Cl)cc1Cl [6l, 2,4-Dichloro-N-(6-(4-(pyrazine-2-carbonyl)piperazin-1-yl)pyridin-3-yl)benzamide]
- Anti-TB activity against M. tuberculosis H37Ra in words [1]: inactive
- IC50 [1, 2]: > 64 µM
- IC50 (Staphylococcus aureus; Staphylococcus aureus): > 64 µM
- IC50 (Escherichia coli): > 64 µM

Structure (SMILES): O=C(Nc1ccc(N2CCN(C(=O)c3cnccn3)CC2)nc1)c1ccncc1 [6m, N-(6-(4-(Pyrazine-2-carbonyl)piperazin-1-yl)pyridin-3-yl)isonicotinamide]
- Anti-TB activity against M. tuberculosis H37Ra in words [1]: loss of activity
- IC50 [1, 2]: > 64 µM
- IC50 (Staphylococcus aureus; Staphylococcus aureus): > 64 µM
- IC50 (Escherichia coli): > 64 µM

Structure (SMILES): O=C(Nc1ccc(N2CCN(C(=O)c3cnccn3)CC2)nc1)c1cnccn1 [6n, N-(6-(4-(Pyrazine-2-carbonyl)piperazin-1-yl)pyridin-3-yl)pyrazine-2-carboxamide]
- Anti-TB activity against M. tuberculosis H37Ra in words [1]: loss of activity
- IC50 [1, 2]: > 64 µM
- IC50 (Staphylococcus aureus; Staphylococcus aureus): > 64 µM
- IC50 (Escherichia coli): > 64 µM

Structure (SMILES): O=C(Nc1ccc(N2CCCN(C(=O)c3cnccn3)CC2)nc1)c1ccccc1 [7a, N-(6-(4-(Pyrazine-2-carbonyl)-1,4-diazepan-1-yl)pyridin-3-yl)benzamide]
- IC50 [1, 2]: > 64 µM
- IC50 (Staphylococcus aureus; Staphylococcus aureus): > 64 µM
- IC50 (Escherichia coli): > 64 µM

Structure (SMILES): CCOc1ccc(C(=O)Nc2ccc(N3CCCN(C(=O)c4cnccn4)CC3)nc2)cc1 [7b, 4-Ethoxy-N-(6-(4-(pyrazine-2-carbonyl)-1,4-diazepan-1-yl)pyridin-3-yl)benzamide]
- IC50 [1, 2]: > 64 µM
- IC50 (Staphylococcus aureus; Staphylococcus aureus): > 64 µM
- IC50 (Escherichia coli): > 64 µM

Structure (SMILES): CC(C)(C)c1ccc(C(=O)Nc2ccc(N3CCCN(C(=O)c4cnccn4)CC3)nc2)cc1 [7c, 4-(tert-Butyl)-N-(6-(4-(pyrazine-2-carbonyl)-1,4-diazepan-1-yl)pyridin-3-yl)benzamide]
- IC50 [1, 2]: > 64 µM
- IC50 (Staphylococcus aureus; Staphylococcus aureus): > 64 µM
- IC50 (Escherichia coli): > 64 µM

Structure (SMILES): O=C(Nc1ccc(N2CCCN(C(=O)c3cnccn3)CC2)nc1)c1ccc(Cl)cc1 [7d, 4-Chloro-N-(6-(4-(pyrazine-2-carbonyl)-1,4-diazepan-1-yl)pyridin-3-yl)benzamide]
- IC50 [1, 2]: > 64 µM
- IC50 (Staphylococcus aureus; Staphylococcus aureus): > 64 µM
- IC50 (Escherichia coli): > 64 µM

Structure (SMILES): O=C(Nc1ccc(N2CCCN(C(=O)c3cnccn3)CC2)nc1)c1ccc(Br)cc1 [7e, 4-Bromo-N-(6-(4-(pyrazine-2-carbonyl)-1,4-diazepan-1-yl)pyridin-3-yl)benzamide]
- IC50 [1, 2]: 2.12 µM
- IC50 (Staphylococcus aureus; Staphylococcus aureus): > 64 µM
- IC50 (Escherichia coli): > 64 µM

Structure (SMILES): O=C(Nc1ccc(N2CCCN(C(=O)c3cnccn3)CC2)nc1)c1cccc([N+](=O)[O-])c1 [7f, 3-Nitro-N-(6-(4-(pyrazine-2-carbonyl)-1,4-diazepan-1-yl)pyridin-3-yl)benzamide]
- IC50 [1, 2]: > 64 µM
- IC50 (Staphylococcus aureus; Staphylococcus aureus): > 64 µM
- IC50 (Escherichia coli): > 64 µM

Structure (SMILES): O=C(Nc1ccc(N2CCCN(C(=O)c3cnccn3)CC2)nc1)c1cccc(Br)c1 [7g, 3-Bromo-N-(6-(4-(pyrazine-2-carbonyl)-1,4-diazepan-1-yl)pyridin-3-yl)benzamide]
- IC50 [1, 2]: > 64 µM
- IC50 (Staphylococcus aureus; Staphylococcus aureus): > 64 µM
- IC50 (Escherichia coli): > 64 µM

Structure (SMILES): O=C(Nc1ccc(N2CCCN(C(=O)c3cnccn3)CC2)nc1)c1ccccc1I [7h, 2-Iodo-N-(6-(4-(pyrazine-2-carbonyl)-1,4-diazepan-1-yl)pyridin-3-yl)benzamide]
- IC50 [1, 2]: > 64 µM
- IC50 (Staphylococcus aureus; Staphylococcus aureus): > 64 µM
- IC50 (Escherichia coli): > 64 µM

Structure (SMILES): O=C(Nc1ccc(N2CCCN(C(=O)c3cnccn3)CC2)nc1)c1ccc(Br)cc1Cl [7i, 4-Bromo-2-chloro-N-(6-(4-(pyrazine-2-carbonyl)-1,4-diazepan-1-yl)pyridin-3-yl)benzamide]
- IC50 [1, 2]: > 64 µM
- IC50 (Staphylococcus aureus; Staphylococcus aureus): > 64 µM
- IC50 (Escherichia coli): > 64 µM

Structure (SMILES): O=C(Nc1ccc(N2CCCN(C(=O)c3cnccn3)CC2)nc1)c1ccc(Cl)cc1Cl [7j, 2,4-Dichloro-N-(6-(4-(pyrazine-2-carbonyl)-1,4-diazepan-1-yl)pyridin-3-yl)benzamide]
- IC50 [1, 2]: > 64 µM
- IC50 (Staphylococcus aureus; Staphylococcus aureus): > 64 µM
- IC50 (Escherichia coli): > 64 µM

Structure (SMILES): O=C(Nc1ccc(N2CCCN(C(=O)c3cnccn3)CC2)nc1)c1cnccn1 [7k, N-(6-(4-(Pyrazine-2-carbonyl)-1,4-diazepan-1-yl)pyridin-3-yl)pyrazine-2-carboxamide]
- IC50 (Staphylococcus aureus; Staphylococcus aureus): > 64 µM
- IC50 (Escherichia coli): > 64 µM

Structure (SMILES): O=C(Nc1ccc(N2CCCN(C(=O)c3cnccn3)CC2)nc1)c1ccncc1 [7l, N-(6-(4-(Pyrazine-2-carbonyl)-1,4-diazepan-1-yl)pyridin-3-yl)isonicotinamide]
- IC50 [1, 2]: > 64 µM
- IC50 (Staphylococcus aureus; Staphylococcus aureus): > 64 µM
- IC50 (Escherichia coli): > 64 µM

Structure (SMILES): O=C(Nc1ccc(N2CCCN(C(=O)c3cnccn3)CC2)nc1)c1c(F)cccc1Cl [7m, 2-Chloro-6-fluoro-N-(6-(4-(pyrazine-2-carbonyl)-1,4-diazepan-1-yl)pyridin-3-yl)benzamide]
- IC50 [1, 2]: > 64 µM
- IC50 (Staphylococcus aureus; Staphylococcus aureus): > 64 µM
- IC50 (Escherichia coli): > 64 µM

Structure (SMILES): O=C(Nc1ccc(C(F)(F)F)cc1)c1cnccn1 [A, N-(4-(trifluoromethyl)phenyl)pyrazine-2-carboxamide]
- MIC, anti-mycobacterial activity (MTB): ≤ 2 µg/L

Structure (SMILES): Cc1cccc(NC(=O)c2cnccn2)c1Br [B, N-(2-bromo-3-methylphenyl)pyrazine-2-carboxamide]
- MIC, anti-mycobacterial activity (MTB): ≤ 2 µg/L

Structure (SMILES): Cc1ccc(NC(=O)c2cnccn2)cc1I [C, N-(3-iodo-4-methylphenyl)pyrazine-2-carboxamide]
- MIC, anti-mycobacterial activity (MTB): ≤ 2 µg/L

Structure (SMILES): Cc1ccc(NC(=O)c2cnc(C(C)(C)C)c(Cl)n2)cc1I [D, 5-(tert-Butyl)-6-chloro-N-(3-iodo-4-methylphenyl)pyrazine-2-carboxamide]
- IC50, anti-mycobacterial activity (MTB): 0.728 µg/mL (≈ 1.69 µM)
- IC90, anti-mycobacterial activity (MTB): 0.819 µg/mL (≈ 1.91 µM)

Structure (SMILES): C[C@H]1c2cccc(O)c2C(O)=C2C(=O)[C@]3(O)C(O)=C(C(N)=O)C(=O)[C@@H](N(C)C)[C@@H]3[C@@H](O)[C@@H]21 [Doxycyclin, reference compound]
- IC50 (Staphylococcus aureus): 0.09 µM

Structure (SMILES): O=C(NCCN1CCNCC1)c1cnccn1 [E, N-(2-(piperazin-1-yl)ethyl)pyrazine-2-carboxamide]
- MIC against MTB H37Rv (MTB H37Rv): 12.2 µg/mL (≈ 51.9 µM)

Structure (SMILES): O=C(NCCN1CCOCC1)c1cnccn1 [F, N-(2-morpholinoethyl)pyrazine-2-carboxamide]
- MIC against MTB H37Rv (MTB H37Rv): 8.0 µg/mL (≈ 33.9 µM)

Structure (SMILES): NNC(=O)c1ccncc1 [Isoniazid, reference compound]
- IC50 [1, 2]: 0.013 µM

Structure (SMILES): CCn1cc(C(=O)O)c(=O)c2cc(F)c(N3CCNCC3)cc21 [Norfloxacin, reference compound]
- IC50 (Escherichia coli): 0.38 µM

Structure (SMILES): NC(=O)c1cnccn1 [PZA, Pyrazinamide]
- IC90, anti-mycobacterial activity (MTB): > 20 µg/mL
- MIC, anti-mycobacterial activity (MTB): 8 µg/L (≈ 0.065 µM)
